Laboratory results taken from patent US20260364056A1, “METHODS OF TREATMENT OF NON-PANCREATIC GASTROINTESTINAL CANCERS” (IONCTURA bv, priority 2023, published 2026).

Tests used:
KKU-M213 cells [1] = assay: Annexin V staining (early apoptosis); type: cell-based, human; settings: 3, 9 and 12 mM (so in the source), 4 h, serum-free, dose dependent
Method: (§1) For detection of early apoptosis the Annexin V-FITC kit (Miltenyi Biotech) was used. Cells were seeded and grown on Nunc Lab-Tek II Chamber Slide. After a wash with PBS, cells were incubated with Compound 1 3, 9 and 12 μM in serum-free medium. After […] cells were washed with Binding Buffer (BB) and stained with a solution of Annexin V-FITC antibody in BB for 15′. After 2 washes with BB the cells were fixed with a 4% paraformaldehyde solution and a coverslip was mounted onto the slide using a DAPI Ready Made Solution with Antifade (Merck). Images were acquired using a confocal microscope Nikon Eclipse Ti2 and analysed with image-J.
(§2) Fluorescence microscopy of cells treated with 3, 9 and 12 μM Compound 1 for 4 h and stained with Annexin V-FITC antibody. Annexin V positive cells are early apoptotic cells. Green fluorescence (Annexin V) was quantified using ImageJ software and correlated to DAPI blue fluorescence (nuclei).
(§3) To further explore the activity of Compound 1 on gastrointestinal cancer cells, the effectiveness on cell apoptosis was investigated. Following incubation with Compound 1, cells underwent morphological changes of cell shrinkage and cytoplasmic vacuolization (FIG. 1C). An early event in apoptosis is represented by the loss of plasma membrane asymmetry, resulting in the translocation of phosphatidylserine (PS) from the inner to the outer plasma membrane leaflet. Exposed PS on the cell surface can be used to measure apoptosis by the binding with Annexin V. KKU-M213, HLE and HT-29 cells were incubated with increasing concentrations of Compound 1 (3, 9 and 12 μM). After 4 hours, cells were stained with a FITC-Annexin V antibody and fixed. […] Moreover, a human apoptosis antibody array was used to identify the differential expression of 43 apoptosis-related proteins in cells treated with 12 μM Compound 1 for 24 h compared to untreated cells.

HT-29 cells [2] = assay: Annexin V staining (early apoptosis); type: cell-based, human; settings: 3, 9 and 12 mM (so in the source), 4 h, serum-free, dose dependent
Method: as §1, §2, §3

HLE cells [3] = assay: Annexin V staining (early apoptosis); type: cell-based, human; settings: 9 and 12 mM (so in the source), 4 h, serum-free; same effect = significantly (p<0.05) induced cell apoptosis
Method: as §1, §2, §3

[4] = tested on: xenografted tumours of KKUM-213 cells and human cancer-associated fibroblasts; assay: Tumour growth in vivo, mouse xenograft model of cholangiocarcinoma; settings: 10 mg/kg twice daily, oral gavage, from 5th day, vs vehicle, n=5, Mann-Whitney P<0.05
Method: To further explore the activity of Compound 1 on gastrointestinal cancer cells in vivo, the effectiveness in a mouse model of cholangiocarcinoma was investigated. Xenografted tumours were produced by co-injection of KKUM-213 cells and human cancer-associated fibroblasts (CAFs). Starting from the 5th day the mice were treated twice daily with Compound 1 (10 mg/kg) or vehicle (1% (w/v) methylcellulose in water) by oral gavage. The tumour volumes were monitored twice a week until the animals were sacrificed. […] Data are presented as the mean±SD (n=5 mice per group; Mann-Whitney test:*P<0.05).

breast cancer = settings: in vivo; cited from earlier work
Caco2 cells = assay: Cell viability assay (crystal violet); type: cell-based, human
Method: (§4) Human colorectal adenocarcinoma HT29 and Caco-2 cells, hepatocellular carcinoma HLE cells, cholangiocarcinoma RBE and KKU-M213 cells were purchased from the American […] Culture Collection (ATCC, Manassas, VA, USA). The hepatocellular carcinoma cell line HLF was purchased from JCRB Cell Bank (Japan). All cell lines were cultured in Dulbecco's Modified Eagle Medium (DMEM) supplemented with 10% foetal bovine serum (FBS), 1 mM pyruvate, 25 mM HEPES, 100 U/mL penicillin-streptomycin (all from Thermo Fisher Scientific, Waltham, MA, USA), and maintained in a humidified atmosphere at 37 °C containing 5% CO2. The medium was changed every three days. Oleoyl-LPA was purchased from Avanti Polar Lipids (Birmingham, AL).
(§5) Cells were seeded in 96-well plates at a density of 2000 cells/well in 10% FBS supplemented medium. After 24 h, medium was removed, the cells washed with PBS and cultured in the presence or absence of FBS and of different concentrations of Compound land LPA. After the time set for the experiment, the cells were fixed with a 4% PFA solution and stained with 0.02% crystal violet for 10 min. Subsequently the plates have been washed with water to remove excess dye. The cell-bound dye was redissolved in 1% SDS and the optical density was measured at λ=570 with a iMark™ Microplate Absorbance Reader (Bio-rad).
(§6) FIGS. 2A and 2B show the effect of Compound 1 on cell proliferation in the absence of FBS and in the presence of 10% FBS. […] Cells were grown in serum free culture medium or in presence of 10% FBS and incubated with increasing Compound 1 concentrations or with DMSO (control cells) for 24, 48 and 72 hours. After fixation, proliferation was assessed by crystal violet staining method. *P<0.05.
(§7) To evaluate the anti-proliferative/cytotoxic effects of Compound 1, six different cancer tumour cell lines were treated developed from cholangiocarcinoma (CCA), hepatocellular carcinoma (HCC) and colorectal cancer (CRC), with increasing concentration of the Compound 1 ranging from 10 μM up to 50 μM and at different times of incubation. After 24, 48 and 72 hours of drug treatment, attached cells were fixed and stained with crystal violet dye. This method is used to evaluate the effect of chemotherapeutics or other anti-cancer drugs on cell survival and proliferation. In the first experiments, Compound 1 was administered to cells in culture medium supplemented with 10% FBS. […] To test the hypothesis that the presence of serum, and consequently the endogenous LPA, could interfere with the Compound 1 activity, all the cancer cells were treated with Compound 1 at concentration ranging from 1 μM up to 12 μM, in the presence or absence of 10% FBS.

KKU-M213 cells [5] = assay: Cell viability assay (crystal violet); type: cell-based, human
Method: as §4, §5, §6, §7

HT-29 cells [6] = assay: Cell viability assay (crystal violet); type: cell-based, human
Method: as §4, §5, §6, §7

HLE cells [7] = assay: Cell viability assay (crystal violet); type: cell-based, human
Method: as §4, §5, §6, §7

RBE cells = assay: Cell viability assay (crystal violet); type: cell-based, human
Method: as §4, §5, §6, §7

[8] = 1 μM up to 12 μM, 10% FBS, 24, 48 and 72 h
[9] = 3 to 12 μM, absence of FBS, evident after 48 h, stronger after 72 h
[10] = 30 to 50 μM, medium with 10% FBS

C[C@H](NC(=O)CCc1nc2cccnc2n1Cc1ccc(OC(F)(F)F)cc1)c1ccc(Cl)cc1 [Compound 1, N-[(S)-1-(4-chloro-phenyl)-ethyl]-3-[3-(4-trifluoromethoxy-benzyl)-3H-imidazo[4,5-b]pyridin-2-yl]-propionamide]
induction of cell apoptosis (Annexin V) (KKU-M213 cells [1]): significantly (p<0.05) induced cell apoptosis | induction of cell apoptosis (Annexin V) (HT-29 cells [2]): significantly (p<0.05) induced cell apoptosis | induction of cell apoptosis (Annexin V) (HLE cells [3]): the same effect was seen | tumour progression (tumour volume) [4]: significantly reduces tumour progression | dissemination of primary tumors (breast cancer): inhibit the dissemination of primary tumors | effect on cell proliferation (Caco2 cells; [8]): generally the same as the control | cytotoxic effect / inhibition of cell proliferation (Caco2 cells; [9]): significant (p<0.05) cytotoxic effect in a dose-dependent manner | cytotoxic effect (Caco2 cells; [10]): significant (p<0.05) cytotoxic effect | effect on cell proliferation (KKU-M213 cells [5]; [8]): generally the same as the control | effect of FBS on activity of Compound 1 (KKU-M213 cells [5]; 9 μM, 72 h, 5% FBS): completely abolishing the Compound 1 effect | cell inhibition compared to control (KKU-M213 cells [5]; 9 μM, 72 h, no FBS): clear difference in the cell inhibition compared to the control | effect of FBS on activity of Compound 1 (KKU-M213 cells [5]; 9 μM, 72 h, starting at 2% FBS): significantly (p<0.05) reduced the activity of Compound 1 | cytotoxic effect / inhibition of cell proliferation (KKU-M213 cells [5]; [9]): significant (p<0.05) cytotoxic effect in a dose-dependent manner | cytotoxic effect (KKU-M213 cells [5]; [10]): significant (p<0.05) cytotoxic effect | effect on cell proliferation (HT-29 cells [6]; [8]): generally the same as the control | effect of FBS on activity of Compound 1 (HT-29 cells [6]; 9 μM, 72 h, 5% FBS): completely abolishing the Compound 1 effect | cell inhibition compared to control (HT-29 cells [6]; 9 μM, 72 h, no FBS): clear difference in the cell inhibition compared to the control | effect of FBS on activity of Compound 1 (HT-29 cells [6]; 9 μM, 72 h, starting at 2% FBS): significantly (p<0.05) reduced the activity of Compound 1 | cytotoxic effect / inhibition of cell proliferation (HT-29 cells [6]; [9]): significant (p<0.05) cytotoxic effect in a dose-dependent manner | cytotoxic effect (HT-29 cells [6]; [10]): significant (p<0.05) cytotoxic effect | effect on cell proliferation (HLE cells [7]; [8]): generally the same as the control | effect of FBS on activity of Compound 1 (HLE cells [7]; 9 μM, 72 h, 5% FBS): completely abolishing the Compound 1 effect | cell inhibition compared to control (HLE cells [7]; 9 μM, 72 h, no FBS): clear difference in the cell inhibition compared to the control | effect of FBS on activity of Compound 1 (HLE cells [7]; 9 μM, 72 h, starting at 2% FBS): significantly (p<0.05) reduced the activity of Compound 1 | cytotoxic effect / inhibition of cell proliferation (HLE cells [7]; [9]): significant (p<0.05) cytotoxic effect in a dose-dependent manner | cytotoxic effect (HLE cells [7]; [10]): significant (p<0.05) cytotoxic effect | effect on cell proliferation (RBE cells; [8]): generally the same as the control | cytotoxic effect / inhibition of cell proliferation (RBE cells; [9]): significant (p<0.05) cytotoxic effect in a dose-dependent manner | cytotoxic effect (RBE cells; [10]): significant (p<0.05) cytotoxic effect
